From patent US10980739B2, “Treatment of a disease of the gastrointestinal tract with a chemokine/chemokine receptor inhibitor” (Progenity, Inc., priority 2016, dated 2021)

Assay: Tacrolimus tissue pharmacokinetics, oral versus intra-cecal ingestible device delivery
Format: in vivo, Yorkshire-Cross farm swine
Details: swine, intra-cecal ingestible device vs oral, 12 hours post-dose; FIG. 76
Experimental: No further randomization procedure was employed.
Animals in Group 1 received an ingestible device containing 0.8 mL of vehicle solution (80% alcohol, 20% HCO-60). Animals in Group 2 received orally […] liquid formulation of tacrolimus at 4 mg/0.8 mL per animal (Prograf: 5 mg/mL). Animals in Group 3 received intra-cecally an ingestible device containing tacrolimus at 1 mg in 0.8 mL per ingestible device. Animals in Group 4 received intra-cecally an ingestible device containing tacrolimus at 2 mg in 0.8 mL per ingestible device. Animals in Group 5 received intra-cecally an ingestible device containing tacrolimus at 4 mg in 0.8 mL per ingestible device. […]
Approximately 200˜400 mg of rectal content were collected, if available, with a fecal swab (Copan Diagnostics Nylon Flocked Dry Swabs, 502CS01). The fecal swab was pre-weighed and weighed after collection in the collection tube (Sterile Tube and Cap No Media, PFPM913S), and the sample weight was recorded. […]
For tissue necropsy, small intestine fluid and cecal fluid were collected separately from all the animals into two separate square plastic bottles, and stored at −20° C. The length and diameter of the cecum and the colon was measured from one animal in each group and recorded for reference. […] All samples were weighed, and the tissue sample weights were recorded. […]

mean concentration of tacrolimus in the cecum tissue and the proximate colon tissue: higher
SMILES: C=CC[C@@H]1/C=C(\C)C[C@H](C)C[C@H](OC)[C@H]2O[C@@](O)(C(=O)C(=O)N3CCCC[C@H]3C(=O)O[C@H](/C(C)=C/[C@@H]3CC[C@@H](O)[C@H](OC)C3)[C@H](C)[C@@H](O)CC1=O)[C@H](C)C[C@@H]2OC [tacrolimus]
